From the supplement of paper PMC10307832

Legend:
Assay in all cases: relative viability (nuclei count vs DMSO), 5 days (fraction); higher = more cells survive
[1] = system: NCI-H838
In short: (§1)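 Nuclei were stained with Hoechst during a one-step fixation (final 0.05% Triton X-100, 1% formaldehyde, 1 ug/ml Hoechst) carried out 5 days after dosing, then counted on 4× images. The cells, lung cancer lines in 1536-well plates, had been dosed by pin tool the day after seeding with one drug alone or a fixed anchor-drug dose plus five library-drug doses (not always all listed) in √10 steps. Relative viability is the nuclei count in treated wells divided by that in vehicle wells, and each value is the median of duplicate plates.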

[2] = system: NCI-H358
In short: as §1

[3] = system: NCI-H1666
In short: as §1

[4] = system: NCI-H1944
In short: as §1

[5] = system: LCLC-97TM1
In short: as §1

[6] = system: LU99A
In short: as §1

[7] = system: HCC-78
In short: as §1

[8] = system: NCI-H1355
In short: as §1

[9] = system: NCI-H1975
In short: as §1

[10] = system: LXF-289
In short: as §1

[11] = system: NCI-H650
In short: as §1

[12] = system: LK-2
In short: as §1

[13] = system: NCI-H596
In short: as §1

[14] = system: ChaGo-K-1
In short: as §1

[15] = system: NCI-H661
In short: as §1

[16] = system: BEN
In short: as §1

[17] = system: PC-3 [JPC-3]
In short: as §1

[18] = system: NCI-H2342
In short: as §1

[19] = system: NCI-H1651
In short: as §1

[20] = system: LC-2-ad
In short: as §1

[21] = system: SK-MES-1
In short: as §1

[22] = system: NCI-H2087
In short: as §1

Nc1ccn([C@@H]2O[C@H](CO)[C@@H](O)[C@@H]2O)c(=O)n1 [Cytarabine] + CC(=O)Nc1cccc(-n2c(=O)n(C3CC3)c(=O)c3c(Nc4ccc(I)cc4F)n(C)c(=O)c(C)c32)c1 [Trametinib] (partner 0.02 µM)
relative viability ([1]; first compound 0.005 µM): 0.724 | relative viability ([1]; first compound 0.01581 µM): 0.535 | relative viability ([1]; first compound 0.05 µM): 0.543 | relative viability ([1]; first compound 0.1581 µM): 0.274 | relative viability ([1]; first compound 0.5 µM): 0.246 | relative viability ([2]; first compound 0.005 µM): 0.126 | relative viability ([2]; first compound 0.01581 µM): 0.108 | relative viability ([2]; first compound 0.05 µM): 0.103 | relative viability ([2]; first compound 0.1581 µM): 0.076 | relative viability ([2]; first compound 0.5 µM): 0.0812 | relative viability ([3]; first compound 0.005 µM): 0.806 | relative viability ([3]; first compound 0.01581 µM): 0.728 | relative viability ([3]; first compound 0.05 µM): 0.76 | relative viability ([3]; first compound 0.1581 µM): 0.646 | relative viability ([3]; first compound 0.5 µM): 0.592 | relative viability ([4]; first compound 0.005 µM): 0.36 | relative viability ([4]; first compound 0.01581 µM): 0.287 | relative viability ([4]; first compound 0.05 µM): 0.3 | relative viability ([4]; first compound 0.1581 µM): 0.168 | relative viability ([4]; first compound 0.5 µM): 0.169 | relative viability ([5]; first compound 0.005 µM): 0.191 | relative viability ([5]; first compound 0.01581 µM): 0.159 | relative viability ([5]; first compound 0.05 µM): 0.173 | relative viability ([5]; first compound 0.1581 µM): 0.136 | relative viability ([5]; first compound 0.5 µM): 0.135 | relative viability ([6]; first compound 0.005 µM): 0.588 | relative viability ([6]; first compound 0.01581 µM): 0.447 | relative viability ([6]; first compound 0.05 µM): 0.497 | relative viability ([6]; first compound 0.1581 µM): 0.549 | relative viability ([6]; first compound 0.5 µM): 0.544 | relative viability ([7]; first compound 0.005 µM): 1.06 | relative viability ([7]; first compound 0.01581 µM): 0.688 | relative viability ([7]; first compound 0.05 µM): 0.575 | relative viability ([7]; first compound 0.1581 µM): 0.478 | relative viability ([7]; first compound 0.5 µM): 0.37 | relative viability ([8]; first compound 0.005 µM): 0.367 | relative viability ([8]; first compound 0.01581 µM): 0.38 | relative viability ([8]; first compound 0.05 µM): 0.398 | relative viability ([8]; first compound 0.1581 µM): 0.303 | relative viability ([8]; first compound 0.5 µM): 0.282 | relative viability ([9]; first compound 0.005 µM): 0.34 | relative viability ([9]; first compound 0.01581 µM): 0.267 | relative viability ([9]; first compound 0.05 µM): 0.631 | relative viability ([9]; first compound 0.1581 µM): 0.25 | relative viability ([9]; first compound 0.5 µM): 0.24 | relative viability ([10]; first compound 0.005 µM): 0.632 | relative viability ([10]; first compound 0.01581 µM): 0.573 | relative viability ([10]; first compound 0.05 µM): 0.62 | relative viability ([10]; first compound 0.1581 µM): 0.428 | relative viability ([10]; first compound 0.5 µM): 0.287 | relative viability ([11]; first compound 0.005 µM): 0.793 | relative viability ([11]; first compound 0.01581 µM): 0.694 | relative viability ([11]; first compound 0.05 µM): 0.47 | relative viability ([11]; first compound 0.1581 µM): 0.186 | relative viability ([11]; first compound 0.5 µM): 0.196 | relative viability ([12]; first compound 0.005 µM): 1.01 | relative viability ([12]; first compound 0.01581 µM): 0.701 | relative viability ([12]; first compound 0.05 µM): 0.479 | relative viability ([12]; first compound 0.1581 µM): 0.226 | relative viability ([12]; first compound 0.5 µM): 0.268 | relative viability ([13]; first compound 0.005 µM): 0.812 | relative viability ([13]; first compound 0.01581 µM): 0.759 | relative viability ([13]; first compound 0.05 µM): 0.69 | relative viability ([13]; first compound 0.1581 µM): 0.5 | relative viability ([13]; first compound 0.5 µM): 0.499 | relative viability ([14]; first compound 0.005 µM): 0.688 | relative viability ([14]; first compound 0.01581 µM): 0.625 | relative viability ([14]; first compound 0.05 µM): 0.504 | relative viability ([14]; first compound 0.1581 µM): 0.308 | relative viability ([14]; first compound 0.5 µM): 0.247 | relative viability ([15]; first compound 0.005 µM): 0.574 | relative viability ([15]; first compound 0.01581 µM): 0.571 | relative viability ([15]; first compound 0.05 µM): 0.582 | relative viability ([15]; first compound 0.1581 µM): 0.435 | relative viability ([15]; first compound 0.5 µM): 0.385 | relative viability ([16]; first compound 0.005 µM): 1.08 | relative viability ([16]; first compound 0.01581 µM): 0.897 | relative viability ([16]; first compound 0.05 µM): 0.781 | relative viability ([16]; first compound 0.1581 µM): 0.553 | relative viability ([16]; first compound 0.5 µM): 0.372 | relative viability ([17]; first compound 0.005 µM): 0.705 | relative viability ([17]; first compound 0.01581 µM): 0.73 | relative viability ([17]; first compound 0.05 µM): 0.589 | relative viability ([17]; first compound 0.1581 µM): 0.423 | relative viability ([17]; first compound 0.5 µM): 0.498 | relative viability ([18]; first compound 0.005 µM): 0.779 | relative viability ([18]; first compound 0.01581 µM): 0.825 | relative viability ([18]; first compound 0.05 µM): 0.803 | relative viability ([18]; first compound 0.1581 µM): 0.579 | relative viability ([18]; first compound 0.5 µM): 0.646 | relative viability ([19]; first compound 0.005 µM): 0.846 | relative viability ([19]; first compound 0.01581 µM): 0.858 | relative viability ([19]; first compound 0.05 µM): 0.818 | relative viability ([19]; first compound 0.1581 µM): 0.591 | relative viability ([19]; first compound 0.5 µM): 0.384 | relative viability ([20]; first compound 0.005 µM): 0.896 | relative viability ([20]; first compound 0.01581 µM): 0.908 | relative viability ([20]; first compound 0.05 µM): 0.893 | relative viability ([20]; first compound 0.1581 µM): 0.708 | relative viability ([20]; first compound 0.5 µM): 0.47 | relative viability ([21]; first compound 0.005 µM): 0.545 | relative viability ([21]; first compound 0.01581 µM): 0.603 | relative viability ([21]; first compound 0.05 µM): 0.315 | relative viability ([21]; first compound 0.1581 µM): 0.215 | relative viability ([21]; first compound 0.5 µM): 0.227 | relative viability ([22]; first compound 0.005 µM): 0.187 | relative viability ([22]; first compound 0.01581 µM): 0.221 | relative viability ([22]; first compound 0.05 µM): 0.187 | relative viability ([22]; first compound 0.1581 µM): 0.139 | relative viability ([22]; first compound 0.5 µM): 0.126
